Measured values as given in patent EP0374249A1, “METHOD OF STERILIZING PLANT POLLEN” (VSESOJUZNY NAUCHNO-ISSLEDOVATELSKY INST. SELSKOKHOZYAISTV. …, priority 1988, dated 1989).

Columns and labels:
[1] = test system: Winterweizens Sorte Mir.onovskaya 808; experiment: Field test of pollen sterilisation (gametocidal activity), winter wheat Mironovskaya 808; assay type: in vivo, Winterweizen; conditions: 2% aqueous emulsion, 20 kg/ha; for Prozentsatz der Sterilität / Anzahl von Körnern der Ähre bei freier Bestäubung / Anzahl von Körnern der Ähre im Isolator: period V of organogenesis; for Anzahl von Körnern der Ähre bei freier Bestäubung: free pollination; for Anzahl von Körnern der Ähre im Isolator: isolated ears; for Prozentsatz des Ansetzens von Körnern bei freier Bestäubung: period V, non-isolated control ears = 100%
Source text: Als Emulgierungsmittel wird 0,1 Masse% Kalziumalkylbenzolsulfonat mit 12 bis 14 Kohlenstoffatomen hinzugefügt. Als Adjuvans fährt man in die Emulsion 0,01 Masse% Dimethylsulfoxid ein. Der Verbrauch an Präparat beträgt 20 kg/ha. Als Kontrolle dienen Pflanzen, behandelt mit einem Verdünner ohne Sterilisationsmittel.

[2] = Toxicity test in animals (LD50); conditions: in vivo; animal test, per kg animal weight; species and route not given
Source text: Alle erfindungsgemässen N-substituierten Maleaminsäuren, welche als Sterilisationsmittel zur Verwendung kommen, waren auf die Toxizität im Tierversuch geprüft. Die Prüfergebnisse haben ergeben, dass die angegebenen Verbindungen von schwacher oder mittlerer Toxizität sind.

[3] = test system: diploidem Roggen Sorte Chulpan; experiment: Field test of pollen sterilisation, diploid rye Chulpan; assay type: in vivo; conditions: 1% aqueous emulsion, 8 kg/ha; for Prozentsatz der Sterilität / Anzahl von Körnern der Ähre bei freier Bestäubung / Anzahl von Körnern der Ähre im Isolator: period V of organogenesis; for Anzahl von Körnern der Ähre bei freier Bestäubung: free pollination; for Anzahl von Körnern der Ähre im Isolator: isolated ears; for Prozentsatz des Ansetzens von Körnern bei freier Bestäubung: period V, non-isolated control ears = 100%
Source text: (§7) Mit dem Ahrenschiebe verwirklicht man die Isolierung von Hauptähren und anderen Stockwerken in Pergamentbeuteln. […] Bei Roggen schliesst man je Ähre 5 bis 7 verschiedene nebeneinander befindliche Pflanzen unter einen gemeinsamen Isolator ein. […] Der Sterilitätsprozentsatz (X) für Weizen, Roggen, Tritikale und Hirse wird nach folgender Formel [formula] ermittelt.
Die Emulsion enthält 0,01 Masse% Tetranydrofuran und 0,1 Masse% Kalziumalkylbenzolsulfonat mit 12 bis 14 Kohlenstoffatomen. Der Verbrauch an Präparat beträgt 8 kg/ha. Als Kontrolle dienen Pflanzen, behandelt mit einem Verdünner ohne Sterilisationsmittel.

[4] = test system: Sommerweizens Sorte Moskovskaya 35; experiment: Field test of pollen sterilisation, spring wheat Moskovskaya 35; assay type: in vivo, Sommerweizen; conditions: 1% aqueous emulsion, 10 kg/ha; for Prozentsatz der Sterilität / Anzahl von Körnern der Ähre bei freier Bestäubung / Anzahl von Körnern der Ähre im Isolator: period V of organogenesis; for Anzahl von Körnern der Ähre bei freier Bestäubung: free pollination; for Anzahl von Körnern der Ähre im Isolator: isolated ears; for Prozentsatz des Ansetzens von Körnern bei freier Bestäubung: period V, non-isolated control ears = 100%
Source text: Pflanzen des Sommerweizens Sorte Moskovskaya 35 werden in V. Periode der Organogenese (nach Kupermann) mit einer 1%igen wässrigen Emulsion von N-(2-Dimethyl-aminoäthyl)-maleaminsäure, N-(3-Dimethylaminopropyl)-maleaminsäure, N-Äthylmaleaminsäure, N-(2-Hydroxyäthyl) maleaminsäure bzw. N-Karbamoylmaleaminsäure behandelt. Die Emulsion enthält 0,5 Masse% Kalziumalkylbenzolsulfonat mit 12 bis 14 Kohlenstoffatomen als Emulgierungsmittel und 0,01 Masse% Dimethylformamid als Adjuvans. Der Verbrauch an Präparat beträgt 10 kg/ha. Als Kontrolle dienen Pflanzen, behandelt mit einem Verdünner ohne Sterilisationsmittel.

[5] = test system: diploidem Roggen Sorte Voskhod 2; experiment: Field test of pollen sterilisation, diploid rye Voskhod 2; assay type: in vivo; conditions: 1% aqueous emulsion, 10 kg/ha; for Prozentsatz der Sterilität / Anzahl von Körnern der Ähre bei freier Bestäubung / Anzahl von Körnern der Ähre im Isolator: period V of organogenesis; for Anzahl von Körnern der Ähre bei freier Bestäubung: free pollination; for Anzahl von Körnern der Ähre im Isolator: isolated ears; for Prozentsatz des Ansetzens von Körnern bei freier Bestäubung: period V, non-isolated control ears = 100%
Source text: Die Emulsion enthält 0,1 Masse% Kalziumalkylbenzolsulfonat und 0,01 Masse% Dimethylformamid. Der Verbrauch an Präparat beträgt 10 kg/ha. Als Kontrolle dienen Pflanzen, behandelt mit einem Lösungsmittel ohne Sterilisationsmittel.

[6] = test system: tetraploidem Roggen Sorte Belta; experiment: Field test of pollen sterilisation, tetraploid rye Belta; assay type: in vivo; conditions: 1% aqueous emulsion, 10 kg/ha; for Prozentsatz der Sterilität / Anzahl von Körnern der Ähre bei freier Bestäubung / Anzahl von Körnern der Ähre im Isolator: period V of organogenesis; for Anzahl von Körnern der Ähre bei freier Bestäubung: free pollination; for Anzahl von Körnern der Ähre im Isolator: isolated ears; for Prozentsatz des Ansetzens von Körnern bei freier Bestäubung: period V, non-isolated control ears = 100%
Source text: (§1) Die gametozide Aktivität der erfindungsgemässen Sterilisationsmittel war im Feldversuch in verschiedenen Bodenklimatischen Zonen mit Teilstücken von 10 m^2 Grösse in drei- bis viermaliger Wiederholung nachgewiesen. Jedes Sterilisationsmittel wurde mindestens 5 Jahre lang geprüft.
(§2) Die Entwicklung der Perioden der Organogenese wird zytologischüberwacht. Die Behandlung von Pflanzen mit dem Sterilisationsmittel erfolgt am Anfang der fünften Periode der Organogenese nach Kupermann.
(§3) Mit dem Ahrenschiebe verwirklicht man die Isolierung von Hauptähren und anderen Stockwerken in Pergamentbeuteln. Bei Weizen und Tritikale werden Einzelisolatoren verwendet. Bei Roggen schliesst man je Ähre 5 bis 7 verschiedene nebeneinander befindliche Pflanzen unter einen gemeinsamen Isolator ein. Bei Hirse wird jede Rispe getrennt isoliert. Der Sterilitätsprozentsatz (X) für Weizen, Roggen, Tritikale und Hirse wird nach folgender Formel [formula] ermittelt.
(§4) Die Kornzahl in nicht isolierten ähren von Kontrollpflanzen wird bedingt für 100% Ansetzen bei freier Bestäubung angenommen.
(§5) Um zuverlässige Angaben zu erhalten, verwendet man 20 bis 25 Isolatoren jeder Wiederholung für Weisen und Tritikale, 10 bis 15 Gruppenisolatoren jeder Wiederholung für Roggen und Hirse.
Pflanzen von tetraploidem Roggen Sorte Belta werden in der V. Periode der Organogenese (nach Kupermann) mit einer 1%igen wässrigen Emulsion von N-(2-Dimethylamino- .äthyl)maleaminsäure, N-(3-Dimethylaminopropyl)maleaminsäure, N-Äthylmaleaminsäure, N-(2-Hydroxyäthyl)maleaminsäure bzw. Karbamoylmaleaminsäure behandelt. Die Emulsion enthält 0,5 Masse% Kalziumalkylbenzolsulfonat mit 12 bis 14 Kohlenstoffatomen und 0,01 Masso% Tetrahydrofuran. Der Verbrauch an Präparat beträgt 10 kg/ha. Die Prüfergebnisse sind in der Tabelle 5 dargestellt. […] Periode der Organogenese erhalten.

[7] = test system: tetraploidem Roggen Sorte Ukrainskaya tetra; experiment: Field test of pollen sterilisation, tetraploid rye Ukrainskaya tetra; assay type: in vivo; conditions: 1% aqueous emulsion, 6 kg/ha; for Prozentsatz der Sterilität / Anzahl von Körnern der Ähre bei freier Bestäubung / Anzahl von Körnern der Ähre im Isolator: period V of organogenesis; for Anzahl von Körnern der Ähre bei freier Bestäubung: free pollination; for Anzahl von Körnern der Ähre im Isolator: isolated ears; for Prozentsatz des Ansetzens von Körnern bei freier Bestäubung: period V, non-isolated control ears = 100%
Source text: (§6) Jedes Sterilisationsmittel wurde mindestens 5 Jahre lang geprüft.
as §2, §3, §4, §5
Pflanzen von tetraploidem Roggen Sorte Ukrainskaya tetra werden in der V. Periode der Organogenese (nach Kupermann) mit einer 1%igen wässrigen Emulsion von N-(2-Dimethylaminoäthyl)maleaminsäure, N-(3-Dimethyl-aminopropu)maleaminsäure bzw. N-Karbamoylmaleaminsäure behandelt. Die Emulsion enthält 0,1 Masse% Kaliumalkylbenzolsulfonat mit 12 bis 14 Kohlenstoffatomen und 0,01 Masse% Dodezylsulfat. Der Verbrauch an Präparat beträgt 6 kg/ha. Als Kontrolle dienen Pflanzen, behandelt mit einem Verdünner ohne Sterilisationsmittel. Die Prüfergebnisse sind in der Tabelle 6 dargestellt.

[8] = test system: Hirse Sorte Mironovskoe 94; experiment: Field test of pollen sterilisation, millet Mironovskoe 94; assay type: in vivo; conditions: 1% aqueous emulsion, 8 kg/ha; for Prozentsatz der Sterilität / Anzahl von Körnern der Rispe bei freier Bestäubung / Anzahl von Körnern der Rispe im Isolator: period V of organogenesis; for Anzahl von Körnern der Rispe bei freier Bestäubung: free pollination; for Anzahl von Körnern der Rispe im Isolator: isolated panicles; for Prozentsatz des Ansetzens von Körnern bei freier Bestäubung: period V, non-isolated control = 100%
Source text: as §1, §2, §3, §4, §5
Pflanzen der Hirse Sorte Mironovskoe 94 werden in der V. Periode der Organogenese (nach Kupermann) mit einer 1%igen wässrigen Emulsion von N-(2-Dimethylaminoäthyl)maleaminsäure, N-(3-Dimethylaminopropyl)maleaminsäure, N-Äthylmaleaminsäure, N-(2-Hydroxyäthyl)maleaminsäure, N-Karbamoylmaleaminsäure behandelt. Die Emulsion enthält 0,01 Masse% Dimethylaulfoxid und 0,1 Masse% Kalziumalkylbenzolsulfonat mit 12 bis 14 Kohlenstoffatomen. Der Verbrauch an Präparat beträgt 8 kg/ha. Als Kontrolle dienen Pflanzen, behandelt mit einem Verdünner ohne Sterilisationsmittel. Die Prüfergebnisse sind in der Tabelle 12 dargestellt. […] Periode der Organogenese erhalten.

[9] = test system: diploidem Roggen Sorte Talovskaya 12; experiment: Field test of pollen sterilisation, diploid rye Talovskaya 12; assay type: in vivo; conditions: 1% aqueous emulsion, 6 kg/ha; for Prozentsatz der Sterilität / Anzahl von Körnern der Ähre bei freier Bestäubung / Anzahl von Körnern der Ähre im Isolator: period V of organogenesis; for Anzahl von Körnern der Ähre bei freier Bestäubung: free pollination; for Anzahl von Körnern der Ähre im Isolator: isolated ears; for Prozentsatz des Ansetzens von Körnern bei freier Bestäubung: period V, non-isolated control ears = 100%
Source text: as §7
Pflanzen von diploidem Roggen Sorte Talovskaya 12 werden in der V. Periode der Organogenese (nach Kupermann) mit einer 1%igen wässrigen Emulsion von N-(2-Di- methylaminoäthyl)-maleaminsäure, N-(3-Dimethylaminopropyl)-maleaminsäure, N-Äthylmaleaminsäure, N-(2-Hydroxyäthyl)maleaminsäure, N-Karbamoylmaleaminsäure behandelt. Die Emulsion enthält 0,01 Masse% Dodezylsulfat und 0,1 Masse% Kalziumalkylbenzolsulfonat mit 12 bis _14 Kohlenstoffatomen. Der Verbrauch an Präparat beträgt 6 kg/ha. Als Kontrolle dienen Pflanzen, behandelt mit einem Verdünner ohne Sterilisationsmittel.

[10] = test system: Winterweizens Sorte Bezostaya 1; experiment: Field test of pollen sterilisation, winter wheat Bezostaya 1; assay type: in vivo, Winterweizen; conditions: 2% aqueous emulsion, 16 kg/ha; for Prozentsatz der Sterilität / Anzahl von Körnern der Ähre bei freier Bestäubung / Anzahl von Körnern der Ähre im Isolator: period V of organogenesis; for Anzahl von Körnern der Ähre bei freier Bestäubung: free pollination; for Anzahl von Körnern der Ähre im Isolator: isolated ears; for Prozentsatz des Ansetzens von Körnern bei breier Bestäubung: period V, non-isolated control ears = 100%
Source text: Pflanzen des Winterweizens Sorte Bezostaya 1 werden in der V. Periode der Organogenese durch Zerstäubung einer 2%igen wässrigen Emulsion von N-(2-Dimethylaminoäthyl)-maleaminsäure, N-(3-Dimethylaminopropyl)-maleaminsäure, N-Äthylmaleaminsäure, N-(2-Hydroxyäthyl)-maleaminsäure, N-Karbamoylmaleaminsäure mit Hilfe deiner Rückspritze behandelt. Die Emulsion enthält 0,1 Masse% Kalziumalkylbenzolsulfonat mit 12 bis 14 Kohlenstoffatomen. Als Adjuvans führt man in die Emulsion 0,01 Masse% Tetrahydrofuran ein.
Der Verbrauch an Präparat beträgt 16 kg/ha. Als Kontrolle dienen Pflanzen, behandelt mit einem Verdünner ohne Sterilisationsmitteln.

[11] = test system: Sommerweizens Sorte Botanicheskaya 4; experiment: Field test of pollen sterilisation, spring wheat Botanicheskaya 4; assay type: in vivo, Sommerweizen; conditions: 1% aqueous emulsion, 6 kg/ha; for Prozentsatz der Sterilität / Anzahl von Körnern der Ähre bei freier Bestäubung / Anzahl von Körnern der Ähre im Isolator: period V of organogenesis; for Anzahl von Körnern der Ähre bei freier Bestäubung: free pollination; for Anzahl von Körnern der Ähre im Isolator: isolated ears; for Prozentsatz des Ansetzens von Körnern bei freier Bestäubung: period V, non-isolated control ears = 100%
Source text: Pflanzen des Sommerweizens Sorte Botanicheskaya 4 werden in der V. Periode der Organogenese (nach Kupermann) mit einer 1%igen Wässrigen Emulsion von N-(2-Dimethyl-aminoäthyl)-maleaminsäure, N-(3-Dimethylaminopropyl)-maleaminsäure, N-Äthylmaleaminsäure, N-(2-Hydroxyäthyl)-maleaminsäure bzw. N-Karbamoylmaleaminsäure behandelt. Die Emulsion enthält 0,5 Masse% Kalziumalkylbenzolsulfonat mit 12 bis 14 Kohlenstoffatomen und 0,01 Masse% Dimethylsulfoxid als Adjuvans. Der Verbrauch an Präparat beträgt 6 kg/ha. Als Kontrolle dienen Pflanzen, behandelt mit einem Verdünner ohne Sterilisationsmittel.

Tritikale Sorte Prag 109 = experiment: Field test of pollen sterilisation, triticale Prag 109; assay type: in vivo; conditions: 2% aqueous emulsion, 12 kg/ha
Source text: as §6, §2, §3, §4, §5
V.Periode der Organogenese (nach Kupermann) mit einer 2%igen wässrigen Emulsion von N-(3-Dimethylaminopropyl) maleaminsäure, N-Karbamoylmaleaminsäure behandelt. Die Emulsion enthält 0,01 Masse% Tetrahydrofuran […] und 0,1 Masse% Kalziumalkylbenzolsulfonat mit 12 bis 14 Kohlensotffatomen. Der Verbrauch an Präparat beträgt 12 kg/ha. Als Kontrolle dienen Pflanzen, behandelt mit einem Verdünner ohne Sterilisationsmittel.

Structure (SMILES): CN(C)CCNC(=O)/C=C\C(=O)O [Beispiel 1, N-(2-Dimethylaminoäthyl)-maleaminsäure]
- Prozentsatz der Sterilität [1]: 99,8%
- Anzahl von Körnern der Ähre bei freier Bestäubung [1]: 38,3
- Anzahl von Körnern der Ähre im Isolator [1]: 0,1
- Prozentsatz des Ansetzens von Körnern bei freier Bestäubung [1]: 89,9%
- LD50 [2]: 2500 mg/kg
- Prozentsatz der Sterilität [3]: 99,6%
- Anzahl von Körnern der Ähre bei freier Bestäubung [3]: 50,2
- Anzahl von Körnern der Ähre im Isolator [3]: 0,2
- Prozentsatz des Ansetzens von Körnern bei freier Bestäubung [3]: 88,4%
- Prozentsatz der Sterilität [4]: 99,3%
- Anzahl von Körnern der Ähre bei freier Bestäubung [4]: 26,8
- Anzahl von Körnern der Ähre im Isolator [4]: 0,2
- Prozentsatz des Ansetzens von Körnern bei freier Bestäubung [4]: 97,4%
- Prozentsatz der Sterilität [5]: 100,0%
- Anzahl von Körnern der Ähre bei freier Bestäubung [5]: 51,2
- Anzahl von Körnern der Ähre im Isolator [5]: 0,0
- Prozentsatz des Ansetzens von Körnern bei freier Bestäubung [5]: 92,7%
- Prozentsatz der Sterilität [6]: 100,0%
- Anzahl von Körnern der Ähre bei freier Bestäubung [6]: 48,2
- Anzahl von Körnern der Ähre im Isolator [6]: 0,0
- Prozentsatz des Ansetzens von Körnern bei freier Bestäubung [6]: 88,2%
- Prozentsatz der Sterilität [7]: 100,0%
- Anzahl von Körnern der Ähre bei freier Bestäubung [7]: 40,1
- Anzahl von Körnern der Ähre im Isolator [7]: 0,0
- Prozentsatz des Ansetzens von Körnern bei freier Bestäubung [7]: 89,5%
- Prozentsatz der Sterilität [8]: 100,0%
- Anzahl von Körnern der Rispe bei freier Bestäubung [8]: 224,8
- Anzahl von Körnern der Rispe im Isolator [8]: 0,0
- Prozentsatz des Ansetzens von Körnern bei freier Bestäubung [8]: 98,9%
- Prozentsatz der Sterilität [9]: 99,5%
- Anzahl von Körnern der Ähre bei freier Bestäubung [9]: 51,2
- Anzahl von Körnern der Ähre im Isolator [9]: 0,2
- Prozentsatz des Ansetzens von Körnern bei freier Bestäubung [9]: 91,1%
- Prozentsatz der Sterilität [10]: 100,0%
- Anzahl von Körnern der Ähre bei freier Bestäubung [10]: 39,7
- Anzahl von Körnern der Ähre im Isolator [10]: 0,0
- Prozentsatz des Ansetzens von Körnern bei breier Bestäubung [10]: 92,5%
- Prozentsatz der Sterilität [11]: 97,5%
- Anzahl von Körnern der Ähre bei freier Bestäubung [11]: 29,8
- Anzahl von Körnern der Ähre im Isolator [11]: 0,7
- Prozentsatz des Ansetzens von Körnern bei freier Bestäubung [11]: 99,0%

Structure (SMILES): CN(C)CCCNC(=O)/C=C\C(=O)O [Beispiel 2, N-(3-Dimethylaminopropyl)-maleaminsäure]
- Prozentsatz der Sterilität [1]: 99,8%
- Anzahl von Körnern der Ähre bei freier Bestäubung [1]: 41,5
- Anzahl von Körnern der Ähre im Isolator [1]: 0,1
- Prozentsatz des Ansetzens von Körnern bei freier Bestäubung [1]: 97,4%
- LD50 [2]: > 10000 mg/kg
- Prozentsatz der Sterilität [3]: 100,0%
- Anzahl von Körnern der Ähre bei freier Bestäubung [3]: 51,6
- Anzahl von Körnern der Ähre im Isolator [3]: 0,0
- Prozentsatz des Ansetzens von Körnern bei freier Bestäubung [3]: 90,8%
- Prozentsatz der Sterilität [4]: 98,9%
- Anzahl von Körnern der Ähre bei freier Bestäubung [4]: 27,0
- Anzahl von Körnern der Ähre im Isolator [4]: 0,3
- Prozentsatz des Ansetzens von Körnern bei freier Bestäubung [4]: 98,2%
- Prozentsatz der Sterilität (Tritikale Sorte Prag 109; period V of organogenesis): 100,0%
- Anzahl von Körnern der Ähre bei freier Bestäubung (Tritikale Sorte Prag 109; period V of organogenesis, free pollination): 40,3
- Anzahl von Körnern der Ähre im Isolator (Tritikale Sorte Prag 109; period V of organogenesis, isolated ears): 0,0
- Prozentsatz des Ansetzens von Körnern bei freier Bestäubung (Tritikale Sorte Prag 109; period V, non-isolated control ears = 100%): 88,0%
- Prozentsatz der Sterilität [5]: 100,0%
- Anzahl von Körnern der Ähre bei freier Bestäubung [5]: 48,0
- Anzahl von Körnern der Ähre im Isolator [5]: 0,0
- Prozentsatz des Ansetzens von Körnern bei freier Bestäubung [5]: 87,0%
- Prozentsatz der Sterilität [6]: 100,0%
- Anzahl von Körnern der Ähre bei freier Bestäubung [6]: 47,7
- Anzahl von Körnern der Ähre im Isolator [6]: 0,0
- Prozentsatz des Ansetzens von Körnern bei freier Bestäubung [6]: 87,0%
- Prozentsatz der Sterilität [7]: 100,0%
- Anzahl von Körnern der Ähre bei freier Bestäubung [7]: 42,6
- Anzahl von Körnern der Ähre im Isolator [7]: 0,0
- Prozentsatz des Ansetzens von Körnern bei freier Bestäubung [7]: 95,1%
- Prozentsatz der Sterilität [8]: 100,0%
- Anzahl von Körnern der Rispe bei freier Bestäubung [8]: 214,5
- Anzahl von Körnern der Rispe im Isolator [8]: 0,0
- Prozentsatz des Ansetzens von Körnern bei freier Bestäubung [8]: 94,4%
- Prozentsatz der Sterilität [9]: 100,0%
- Anzahl von Körnern der Ähre bei freier Bestäubung [9]: 48,0
- Anzahl von Körnern der Ähre im Isolator [9]: 0,0
- Prozentsatz des Ansetzens von Körnern bei freier Bestäubung [9]: 85,4%
- Prozentsatz der Sterilität [10]: 100,0%
- Anzahl von Körnern der Ähre bei freier Bestäubung [10]: 40,2
- Anzahl von Körnern der Ähre im Isolator [10]: 0,0
- Prozentsatz des Ansetzens von Körnern bei breier Bestäubung [10]: 93,7%
- Prozentsatz der Sterilität [11]: 99,7%
- Anzahl von Körnern der Ähre bei freier Bestäubung [11]: 27,7
- Anzahl von Körnern der Ähre im Isolator [11]: 0,1
- Prozentsatz des Ansetzens von Körnern bei freier Bestäubung [11]: 92,0%
